# Experimental data published in PMC2765055 (Bioorganic & medicinal chemistry, 2009).
# Entries after “also recorded” stand apart in the source; their conditions may differ. Read-outs that look alike come from different tables or passages of the source.
# Tests used:
# [1] = Cytotoxicity, EBV/Akata column; assay type: cell-based; conditions: human, Akata cells
# EBV [2] = assay: EBV DNA hybridization assay in Akata cells; assay type: cell-based, Epstein-Barr virus
# MEF = conditions: read-out: CC50 MCMV/MEF; cited from earlier work
# HSV-1 [3] = conditions: read-out: EC50 HSV-1/BSC-1; ELISA in BSC-1 cells; cited from earlier work
# KB cells = conditions: read-out: CC50 HSV-1/BSC-1; replicating KB cells; cited from earlier work
# HSV-1 [4] = conditions: read-out: EC50 HSV-1/HFF; CPE assay; cited from earlier work
# HFF cells [5] = conditions: neutral red uptake, cited from earlier work
# HFF cells [6] = conditions: read-out: CC50 HCMV/HFF Towne; visual cytotoxicity of HFF; cited from earlier work
# HSV-2 [7] = conditions: read-out: EC50 HSV-2/HFF; CPE assay; cited from earlier work
# VZV [8] = conditions: cited from earlier work; for EC50: read-out: EC50 VZV/HFF, CPE assay
# EBV [9] = conditions: read-out: EC50 EBV/Akata; DNA hybridization assay; cited from earlier work
# HCMV AD169 strain = conditions: read-out: EC50 HCMV/HFF AD169, plaque reduction; cited from earlier work
# EBV [10] = conditions: read-out: EC50 EBV; Daudi cells, viral capsid antigen (VCA) assay; cited from earlier work
# hepatitis B virus (HBV) [11] = conditions: cited from earlier work
# HSV-1 [12] = conditions: read-out: EC50 HSV-1/BSC-1; plaque reduction in BSC-1 cells; cited from earlier work
# [13] = test system: HCMV Towne strains with mutations in UL97; assay: HCMV Towne strains with UL97 mutations; assay type: cell-based, human cytomegalovirus; conditions: strains E8 and 2696r
# HFF cells [14] = assay: Cytotoxicity by neutral red uptake; assay type: cell-based; conditions: read-out: CC50 HSV-1/HFF; neutral red uptake, HSV-1/HFF column
# [15] = Cytotoxicity by neutral red uptake; assay type: cell-based; conditions: human, HFF cells
# [16] = test system: HCMV, MCMV, HSV-1, HSV-2, VZV, EBV, HBV, HCV; assay: Antiviral panel, all tested viruses; assay type: cell-based
# [17] = Cytotoxicity in replicating KB cells; assay type: cell-based; conditions: human
# [18] = Visual cytotoxicity of HFF's in cells unaffected by virus; assay type: cell-based; conditions: human, HFF cells (not affected by virus)
# hepatitis C virus (HCV) = assay: HCV antiviral test; assay type: cell-based
# hepatitis B virus (HBV) [19] = assay: HBV antiviral test; assay type: cell-based
# VZV [20] = assay: VZV CPE assay in HFF; assay type: cell-based, varicella zoster virus
# HSV-1 [21] = assay: HSV-1 CPE inhibition assay in HFF; assay type: cell-based, herpes simplex virus type 1; conditions: Human alphaherpesvirus 1, read-out: EC50 HSV-1/HFF
# HSV-2 [22] = assay: HSV-2 CPE inhibition assay in HFF; assay type: cell-based, herpes simplex virus type 2; conditions: Human alphaherpesvirus 2, read-out: EC50 HSV-2/HFF
# [23] = Cytotoxicity, MCMV/MEF column; assay type: cell-based; conditions: mouse, MEF cells
# [24] = read-out: CC50 HCMV/HFF AD169, AD169 column
# [25] = read-out: CC50 HSV-1/HFF, HSV-1/HFF column
structure (smiles),measurement,setting,value
"Nc1nc2c(ncn2COCCO)c(=O)[nH]1 [Acyclovir, acyclovir]",CC50,[1],> 100 µM
same,EC50,"EBV [2]; human gammaherpesvirus 4, Akata, read-out: EC50 EBV/Akata",8.4 µM
"Nc1nc2c(ncn2/C=C2/CC2(CO)CO)c(=O)[nH]1 [Compound 2b, cyclopropavir]",CC50,MEF,> 380 µM
same,EC50,HSV-1 [3],> 100 µM
same,CC50,KB cells,> 100 µM
same,EC50,HSV-1 [4],> 380 µM
same,CC50,HFF cells [5]; [24],> 380 µM
same,CC50,HFF cells [5]; [25],> 380 µM
same,CC50,HFF cells [6],> 100 µM
same,EC50,HSV-2 [7],> 380 µM
same,activity against VZV,VZV [8]; HFF,ineffective
same,EC50,VZV [8],> 380 µM
same,EC50,EBV [9],0.22 µM
same,EC50,HCMV AD169 strain,0.49 µM
Nc1nc(O)c2ncn(/C=C3/CC34COP(=O)(O)OC4)c2n1 (stereo not shown) [Compound 10],CC50,MEF,> 301 µM
same,EC50,EBV [10],0.96 µM
same,activity against HBV,hepatitis B virus (HBV) [11],effective
same,CC50,KB cells,> 100 µM
same,EC50,HSV-1 [4],> 301 µM
same,CC50,HFF cells [5]; [24],> 301 µM
same,CC50,HFF cells [5]; [25],> 301 µM
same,CC50,HFF cells [6],> 100 µM
same,EC50,HSV-1 [12],20 µM
same,EC50,VZV [8],> 301 µM
same,EC50,HCMV AD169 strain,6 µM
"Nc1nc2c(ncn2/C=C2/CC2(CO)CCP(=O)(O)O)c(=O)[nH]1 (stereo not drawn) [Compound 12, (Z)-9-{[2-(Hydroxymethy)l-2-(2-phosphonoethyl)cyclopropylidene]methyl}guanine]",activity against UL97 mutant strains compared with wild-type Towne HCMV,[13],as active
same,CC50,HFF cells [14],> 300 µM
same,CC50,[15],> 300 µM
"Nc1nc2c(ncn2/C=C2\CC2(CO)CCP(=O)(O)O)c(=O)[nH]1 (stereo not drawn) [Compound 13, (E)-9-{[2-(Hydroxymethy)l-2-(2-phosphonoethyl)cyclopropylidene]methyl}guanine]",CC50,[1],> 100 µM
same,antiviral activity against all tested viruses,[16],devoid of potency; also recorded: devoid of antiviral activity
same,CC50,[17],> 100 µM
same,CC50,[18],> 100 µM
Nc1nc2c(ncn2/C=C2/CC23CCP(=O)(O)OC3)c(=O)[nH]1 (stereo not shown) [Compound 14],activity against HCV,hepatitis C virus (HCV),inactive
same,activity against EBV,EBV [2]; Akata cells,inactive; also recorded: ineffective
same,activity against UL97 mutant strains compared with wild-type Towne HCMV,[13],as active
same,activity against HBV,hepatitis B virus (HBV) [19],inactive
same,activity against VZV,VZV [20]; HFF,ineffective
Nc1nc2c(ncn2/C=C2\CC23CCP(=O)(O)OC3)c(=O)[nH]1 (stereo not shown) [Compound 15],EC50,HSV-1 [21],> 300 µM
same,EC50,HSV-2 [22],> 300 µM
same,CC50,[1],> 100 µM
same,antiviral activity against all tested viruses,[16],devoid of potency; also recorded: devoid of antiviral activity
same,CC50,[17],> 100 µM
same,CC50,[18],> 100 µM
same,CC50,HFF cells [14],> 300 µM
same,CC50,[15],> 300 µM
same,EC50,"VZV [20]; Human alphaherpesvirus 3, read-out: EC50 VZV/HFF",> 300 µM
"Nc1nc(O)c2ncn(COC(CO)CO)c2n1 [Ganciclovir, ganciclovir]",CC50,[23],> 100 µM
same,CC50,[18],> 100 µM
same,CC50,[15],> 100 µM
